# Results from article PMC7539012, “Hyperphosphorylated tau aggregation and cytotoxicity modulators screen identified prescription drugs linked to Alzheimer's disease and cognitive functions” (Scientific Reports, 2020).
# Where a name gives a salt, the structure may show the parent alone. Read-outs that look alike come from different tables or passages of the source.
# Test system: T1, 1N4R p-tau
# T1 construct: made in house; host or cells: E. coli (PIMAX system)
# Assay: p-tau aggregation modulator screen of 1280-compound library (ThS fluorescence net change over 16 h);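 as to ThS net change: 30 µM compound with 6 µM p-tau over 16 h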
# Type: biochemical
# Parameters: key to PTAI>2SD: *: PTAI>2SD
# [1] = p-tau aggregation modulator screen of 1280-compound library, […]
# [2] = p-tau aggregation modulator screen of the compound library, ThS fluorescence net change
# [3] = p-tau aggregation modulator screen of 1280-compound library, ThS fluorescence net change
# [4] = 1280-compound library screen, ThS fluorescence net change over 16 h
# [5] = library screen, ThS fluorescence net change over 16 h with p-tau
# [6] = 1280-compound library screen, […]
smiles,measurement,setting,value
COc1ccc([C@@H]2CC(=O)c3c(O)cc(O[C@@H]4O[C@H](CO[C@@H]5O[C@@H](C)[C@H](O)[C@@H](O)[C@H]5O)[C@@H](O)[C@H](O)[C@H]4O)cc3O2)cc1O [Hesperidin],ThS net change,,425
C[N+](C)(C)CCCCCC[N+](C)(C)C.O.O.[Br-].[Br-] [Hexamethonium dibromide dihydrate],ThS net change,[1],342
CC[C@H](c1ccc(O)cc1)[C@@H](CC)c1ccc(O)cc1 [Hexestrol],ThS net change,[2],435
CCCCC(CC)CN1CN(CC(CC)CCCC)CC(C)(N)C1 (centres unmarked) [Hexetidine],ThS net change,[3],353
CC(CNC1CCCCC1)OC(=O)c1ccccc1 (centres unmarked) [Hexylcaine hydrochloride],ThS net change,[4],393
NCCc1c[nH]cn1 [Histamine dihydrochloride],ThS net change,[2],438
"Br.CN1[C@@H]2CC[C@H]1C[C@@H](OC(=O)C(O)c1ccccc1)C2 (stereo partly drawn) [Homatropine hydrobromide (R,S)]",ThS net change,[1],332
CN1CCCN(C(c2ccccc2)c2ccc(Cl)cc2)CC1.Cl.Cl (centres unmarked) [Homochlorcyclizine dihydrochloride],ThS net change,[1],343
CC1CC(OC(=O)c2ccccc2O)CC(C)(C)C1 (centres unmarked) [Homosalate],ThS net change,[5],279
COc1ccc(CCN)cc1OC.Cl [Homoveratrylamine],ThS net change,,439
CCN(CC)CCNc1ccc(CO)c2sc3ccccc3c(=O)c12 [Hycanthone],PTAI>2SD,"flag: p-tau aggregation inhibitor, ThS net change more than 2 SD from mean",*
same,ThS net change,[5],171
NS(=O)(=O)c1cc2c(cc1Cl)NCNS2(=O)=O [Hydrochlorothiazide],ThS net change,[4],384
C[C@]12CCC(=O)C=C1CC[C@@H]1[C@@H]2[C@@H](O)C[C@@]2(C)[C@H]1CC[C@]2(O)C(=O)CO [Hydrocortisone base],ThS net change,[4],398
NS(=O)(=O)c1cc2c(cc1C(F)(F)F)NCNS2(=O)=O [Hydroflumethiazide],ThS net change,[2],425
CCN(CCO)CCCC(C)Nc1ccnc2cc(Cl)ccc12 (centres unmarked) [Hydroxychloroquine sulfate],ThS net change,[4],380
OCCOCCN1CCN(C(c2ccccc2)c2ccc(Cl)cc2)CC1 (centres unmarked) [Hydroxyzine dihydrochloride],ThS net change,[5],309
Cc1cc(=O)oc2cc(O)ccc12 [Hymecromone],ThS net change,[3],357
CN1[C@@H]2CC[C@H]1C[C@@H](OC(=O)[C@H](CO)c1ccccc1)C2 [Hyoscyamine (L)],ThS net change,,434
CCCCCN(C)CCC(O)(P(=O)([O-])O)P(=O)(O)O.[Na+] [Ibandronate sodium],ThS net change,[6],394
CC(C)C(=O)c1c(C(C)C)nn2ccccc12 [Ibudilast],ThS net change,[2],444
CCCCCCCN(CC)CCCC(O)c1ccc(NS(C)(=O)=O)cc1.CCCCCCCN(CC)CCCC(O)c1ccc(NS(C)(=O)=O)cc1.O=C(O)/C=C/C(=O)O (centres unmarked) [Ibutilide fumarate],ThS net change,[3],330
c1ccc2c(c1)OCC(C1=NCCN1)O2 (centres unmarked) [Idazoxan hydrochloride],ThS net change,[4],386
O=c1[nH]c(=O)n([C@H]2C[C@H](O)[C@@H](CO)O2)cc1I [Idoxuridine],ThS net change,[3],359
CC(C(O)c1ccc(O)cc1)N1CCC(Cc2ccccc2)CC1.O=C(O)C(O)C(O)C(=O)O (centres unmarked) [Ifenprodil tartrate],ThS net change,[3],361
O=P1(NCCCl)OCCCN1CCCl (centres unmarked) [Ifosfamide],ThS net change,[1],374
Cc1ccc(NC(=O)c2ccc(CN3CCN(C)CC3)cc2)cc1Nc1nccc(-c2cccnc2)n1 [Imatinib],ThS net change,[4],409
O=C(NCNC(=O)NC1C(=O)NC(=O)N1CO)NC1C(=O)NC(=O)N1CO (centres unmarked) [Imidurea],ThS net change,,463
C[C@@H](O)[C@H]1C(=O)N2C(C(=O)O)=C(SCCN=CN)C[C@H]12 [Imipenem],ThS net change,[4],385
CN(C)CCCN1c2ccccc2CCc2ccccc21 [Imipramine hydrochloride],ThS net change,,287
CC(C)Cn1cnc2c(N)nc3ccccc3c21 [Imiquimod],ThS net change,[2],439
CC1Cc2ccccc2N1NC(=O)c1ccc(Cl)c(S(N)(=O)=O)c1 (centres unmarked) [Indapamide],ThS net change,[3],347
CN[C@@H]1C[C@@H](c2ccc(Cl)c(Cl)c2)c2ccccc21 [Indatraline hydrochloride],ThS net change,[6],388
CC(C)(C)NC(=O)[C@@H]1CN(Cc2cccnc2)CCN1C[C@@H](O)C[C@@H](Cc1ccccc1)C(=O)N[C@H]1c2ccccc2C[C@H]1O [Indinavir sulfate],ThS net change,,457
COc1ccc2c(c1)c(CC(=O)O)c(C)n2C(=O)c1ccc(Cl)cc1 [Indomethacin],ThS net change,[4],386
CC(C(=O)O)c1ccc(N2Cc3ccccc3C2=O)cc1 (centres unmarked) [Indoprofen],ThS net change,[3],364
N=C(N)NCc1cccc(I)c1.O=S(=O)(O)O [Iobenguane sulfate],ThS net change,[4],411
CC(=O)N(CC(C)C(=O)O)c1c(I)cc(I)c(N)c1I (centres unmarked) [Iocetamic acid],ThS net change,[3],365
O=C(CCCCC(=O)Nc1c(I)cc(I)c(C(=O)O)c1I)Nc1c(I)cc(I)c(C(=O)O)c1I [Iodipamide],ThS net change,[2],421
CC(=O)N(CC(O)CN(C(C)=O)c1c(I)c(C(=O)NCC(O)CO)c(I)c(C(=O)NCC(O)CO)c1I)c1c(I)c(C(=O)NCC(O)CO)c(I)c(C(=O)NCC(O)CO)c1I (centres unmarked) [Iodixanol],ThS net change,[1],338
CC(=O)N(CC(O)CO)c1c(I)c(C(=O)NCC(O)CO)c(I)c(C(=O)NCC(O)CO)c1I (centres unmarked) [Iohexol],ThS net change,[3],345
C[C@H](O)C(=O)Nc1c(I)c(C(=O)NC(CO)CO)c(I)c(C(=O)NC(CO)CO)c1I [Iopamidol],ThS net change,[3],369
CCC(Cc1c(I)cc(I)c(N)c1I)C(=O)O (centres unmarked) [Iopanoic acid],ThS net change,[2],464
COCC(=O)Nc1c(I)c(C(=O)NCC(O)CO)c(I)c(C(=O)N(C)CC(O)CO)c1I (centres unmarked) [Iopromide],ThS net change,[3],359
O=C(NCC(O)CO)c1c(I)c(C(=O)NCC(O)CO)c(I)c(N(CCO)C(=O)CO)c1I (centres unmarked) [Ioversol],ThS net change,[4],409
CNC(=O)c1c(I)c(C(=O)NCC(=O)Nc2c(I)c(C(=O)O)c(I)c(C(=O)NCCO)c2I)c(I)c(N(C)C(C)=O)c1I [Ioxaglic acid],ThS net change,[2],442
CC(C)Oc1ccc2c(=O)c(-c3ccccc3)coc2c1 [Ipriflavone],ThS net change,[2],429
CC(C)NNC(=O)c1ccncc1.O=P(O)(O)O [Iproniazide phosphate],ThS net change,[4],401
O=C1c2ccccc2S(=O)(=O)N1CCCCN1CCN(c2ncccn2)CC1 [Ipsapirone],ThS net change,[3],374
CCCCC1=NC2(CCCC2)C(=O)N1Cc1ccc(-c2ccccc2-c2nnn[nH]2)cc1 [Irbesartan],ThS net change,[2],454
CCc1c2c(nc3ccc(OC(=O)N4CCC(N5CCCCC5)CC4)cc13)-c1cc3c(c(=O)n1C2)COC(=O)[C@]3(O)CC.Cl.O.O.O [Irinotecan hydrochloride trihydrate],ThS net change,,281
Nc1nc(N)nc(-c2cc(Cl)ccc2Cl)n1 [Irsogladine maleate],ThS net change,[5],308
Cc1cc(C(=O)NNCc2ccccc2)no1 [Isocarboxazid],ThS net change,[4],400
Clc1ccc(C(Cn2ccnc2)OCc2c(Cl)cccc2Cl)c(Cl)c1 (centres unmarked) [Isoconazole],ThS net change,[5],296
CCC(NC(C)C)C(O)c1ccc(O)c(O)c1.CS(=O)(=O)O (centres unmarked) [Isoetharine mesylate salt],ThS net change,[5],313
CC(=O)OCC(=O)[C@@]1(O)CC[C@H]2[C@@H]3CCC4=CC(=O)C=C[C@]4(C)[C@@]3(F)[C@@H](O)C[C@@]21C [Isoflupredone acetate],ThS net change,[4],388
CNC(C)CCC=C(C)C.CNC(C)CCC=C(C)C.O=C(O)C(O)C(O)C(O)C(O)C(=O)O (centres unmarked) [Isometheptene mucate],ThS net change,[2],481
NNC(=O)c1ccncc1 [Isoniazid],ThS net change,[4],404
CC(C)[N+](C)(CCC(C(N)=O)(c1ccccc1)c1ccccc1)C(C)C [Isopropamide iodide],ThS net change,[4],395
Cc1c(NC(C)C)c(=O)n(-c2ccccc2)n1C.Cl [Isopyrin hydrochloride],ThS net change,[4],380
O=[N+]([O-])O[C@H]1CO[C@H]2[C@@H]1OC[C@H]2O[N+](=O)[O-] [Isosorbide dinitrate],ThS net change,[6],405
O=[N+]([O-])O[C@@H]1CO[C@H]2[C@@H]1OC[C@@H]2O [Isosorbide mononitrate],ThS net change,,477
CC1=C(/C=C/C(C)=C/C=C/C(C)=C\C(=O)O)C(C)(C)CCC1 [Isotretinoin],ThS net change,[4],389
Cc1cc(NC(=O)C2=C(O)c3ccccc3S(=O)(=O)N2C)no1 [Isoxicam],ThS net change,[3],364
CC(COc1ccccc1)NC(C)C(O)c1ccc(O)cc1 (centres unmarked) [Isoxsuprine hydrochloride],ThS net change,[3],347
COC(=O)C1=C(C)NC(C)=C(C(=O)OC(C)C)C1c1cccc2nonc12 (centres unmarked) [Isradipine],ThS net change,[3],372
COc1ccc(C(=O)NCc2ccc(OCCN(C)C)cc2)cc1OC [Itopride],ThS net change,[4],405
CC[C@H](C)[C@H]1O[C@]2(CC[C@@H]1C)C[C@@H]1C[C@@H](C/C=C(\C)[C@@H](O[C@H]3C[C@H](OC)[C@@H](O[C@H]4C[C@H](OC)[C@@H](O)[C@H](C)O4)[C@H](C)O3)[C@@H](C)/C=C/C=C3\CO[C@@H]4[C@H](O)C(C)=C[C@@H](C(=O)O1)[C@]34O)O2 [Ivermectin],ThS net change,,543
NC[C@H]1O[C@H](O[C@H]2[C@H](O)[C@@H](O[C@H]3O[C@H](CO)[C@@H](O)[C@H](N)[C@H]3O)[C@H](N)C[C@@H]2N)[C@H](O)[C@@H](O)[C@@H]1O [Kanamycin A sulfate],ThS net change,[3],374
O.O=C(O)C(O)C(O)C(=O)O.O=C(c1ccc(F)cc1)C1CCN(CCn2c(=O)[nH]c3ccccc3c2=O)CC1 [Ketanserin tartrate hydrate],ThS net change,[1],354
CC(=O)N1CCN(c2ccc(OCC3COC(Cn4ccnc4)(c4ccc(Cl)cc4Cl)O3)cc2)CC1 (centres unmarked) [Ketoconazole],ThS net change,[3],350
CC(C(=O)O)c1cccc(C(=O)c2ccccc2)c1 (centres unmarked) [Ketoprofen],ThS net change,[3],376
O=C(c1ccccc1)c1ccc2n1CCC2C(=O)O (centres unmarked) [Ketorolac tromethamine],ThS net change,[4],382
CN1CCC(=C2c3ccccc3CC(=O)c3sccc32)CC1 [Ketotifen fumarate],ThS net change,[3],366
